Measurements: patent US20150152088A1, “ALKYNYL HETEROAROMATIC COMPOUND AND USE THEREOF” (Nanjing Sanhome Pharmaceutical Co., Ltd., priority 2012, published 2015)

What was measured:
[1] = system: K562 chronic myelogenous leukemia cells; test: MTT assay, in vitro inhibitory activity on cells; assay type: cell-based
Description: (§1) In this example, MTT assay was used to detect in vitro inhibitory activity of the compounds prepared according to the above examples on the cells. […] AP24534 was purchased from Shanghai Xinkuo Chemical Technology Co., Ltd., China.
(§2) Dimethyl sulfoxide (DMSO) is capable of dissolving formazan in cells, and absorbance value can be measured at a wavelength of 490 nm by an enzyme-linked immunometric meter, which reflects the number of living cells. Within a certain range of the number of cells, the amount of MTT crystals formed is proportional to the number of living cells.
(§3) 1. […] 2. Culturing in a 37° C., 5% CO2 incubator and keeping the cells adhering to the wall of the well. 3. […] 4. Carefully removing the supernatant, gently washing with PBS and discarding the supernatant again. 5. […] 6. Terminating culturing and carefully discarding the medium in each well. 7. Adding 150 μl dimethyl sulfoxide into each well, shaking for 10 minutes at low speed in a shaker, to make crystals fully dissolved. 8. Measuring the absorbance of each well at 490 nm by an enzyme-linked immunometric meter. 9. Calculating IC50 values.

Human ABL1 (T315I) = target: T1, Human ABL1 (T315I) (Homo sapiens, UniProt P00519, T315I); test: ABL1 (T315I) kinase activity, [γ-33P] ATP / Abltide radiometric assay; assay type: biochemical; conditions: ATP 1.0 μM, 120 minutes, room temperature
T1 construct: purchased Millipore Corporation, USA #14-522
Procedure: Kinase activity was determined according to the manufacturer's instructions. Peptide substrate is Abltide ([…]), purchased from Millipore Corporation, USA. Ion exchange chromatography paper P81 was purchased from Whatman Company, UK. [γ-33P] ATP was purchased from Perkin Elmer Company.
[γ-33P] ATP was added at room temperature, with final concentration of 1.0 μM, and the reaction was performed for 120 minutes. 20 μl aliquots were transferred onto the ion exchange chromatography paper P81. The paper was thoroughly washed with a 0.75% phosphoric acid solution three times, and then washed with acetone once. Finally, γ-33P radioactivity was measured.

[2] = system: MDA-MB-231 human breast cancer cells; test: MTT assay, in vitro inhibitory activity on cells; assay type: cell-based; conditions: typically 48 hours
Description: as §1, §2, §3

[3] = system: Ovcar-3 human ovarian cancer cells; test: MTT assay, in vitro inhibitory activity on cells; assay type: cell-based; conditions: typically 48 hours
Description: as §1, §2, §3

[4] = system: Saos-2 human osteosarcoma cells; test: MTT assay, in vitro inhibitory activity on cells; assay type: cell-based; conditions: typically 48 hours
Description: as §1, §2, §3

[5] = Homo sapiens, K562, 48 h, typically 48 hours

Structure (SMILES)	IC50 [1, 5]	other results
CC(=O)Nc1ncc2c(F)cc(C#Cc3cc(C(=O)Nc4ccc(CN5CCN(C)CC5)c(C(F)(F)F)c4)ccc3C)cc2n1 [Example 10, 3-((5-fluoro-2-acetylaminoquinazolin-7-yl)ethynyl)-4-methyl-N-[4-((4-methylpiperazin-1-yl)methyl)-3-trifluoromethylphenyl]benzamide]	6880 nM	
Cc1ccc(C(=O)Nc2ccc(CN3CCS(=O)(=O)CC3)c(C(F)(F)F)c2)cc1C#Cc1cccc2ncncc12 [Example 17]	8720 nM	
Cc1cn(-c2cc(NC(=O)c3ccc(C)c(C#Cc4cccc5ncncc45)c3)cc(C(F)(F)F)c2)cn1 [Example 20, 3-((quinazolin-5-yl)ethynyl)-4-methyl-N-[3-(4-methyl-1H-imidazol-1-yl)-5-trifluoromethylphenyl]benzamide]	1140 nM	IC50 (Human ABL1 (T315I)): 43.5 nM
Cc1ccc(C(=O)Nc2ccc(CN3CC[C@@H](N(C)C)C3)c(C(F)(F)F)c2)cc1C#Cc1cccc2ncncc12 [Example 18, 3-((quinazolin-5-yl)ethynyl)-4-methyl-(R)—N-[4-((3-(dimethylamino)pyrrolidin-1-yl)methyl)-3-trifluoromethylphenyl]benzamide]		IC50 ([1]; typically 48 hours): 470 nM; IC50 (Human ABL1 (T315I)): 21.7 nM
CNC(=O)c1cc(Oc2ccc(NC(=O)c3ccc(C)c(C#Cc4cccc5ncncc45)c3)cc2)ccn1 [Example 29, 3-((quinazolin-5-yl)ethynyl)-4-methyl-N-[4-(2-(N-methylcarboxamido)pyridinyl-4-oxy)phenyl]benzamide]	24100 nM	
Cc1cn(-c2cc(NC(=O)c3ccc(F)c(C#Cc4cccc5ncncc45)c3)cc(C(F)(F)F)c2)cn1 [Example 24, 3-((quinazolin-5-yl)ethynyl)-4-fluoro-N-[3-(4-methyl-1H-imidazol-1-yl)-5-trifluoromethylphenyl]benzamide]	11400 nM	
Cc1ccc(C(=O)Nc2ccc(CN3CCN(C)CC3)c(C(F)(F)F)c2)cc1C#Cc1cnc2cccnn12 [AP24534, reference compound]		IC50 [2]: 420 nM; IC50 ([1]; Homo sapiens, K562, typically 48 hours): 4800 nM; IC50 [3]: 1210 nM; IC50 [4]: 380 nM
Cc1ccc(C(=O)Nc2ccc(CN3CCC(N(C)C)CC3)c(C(F)(F)F)c2)cc1C#Cc1ccc2nccnc2c1 [Example 21]	3310 nM	IC50 (Human ABL1 (T315I)): 24.3 nM
CNC(=O)c1cc(Oc2ccc(NC(=O)c3ccc(C)c(C#Cc4ccc5c(NC)ncnc5c4)c3)cc2)ccn1 [Example 30]	89100 nM	
CNc1ncnc2cc(C#Cc3cc(C(=O)Nc4ccc(CN5CCN(CCO)CC5)c(C(F)(F)F)c4)ccc3C)ccc12 [Example 14, 3-((4-methylaminoquinazolin-7-yl)ethynyl)-4-methyl-N-[4-((4-(2-hydroxyethyl)piperazin-1-yl)methyl)-3-trifluoromethylphenyl]benzamide]	5680 nM	
Cc1ccc(C(=O)Nc2ccc(CN3CCC(N(C)C)C3)c(C(F)(F)F)c2)cc1C#Cc1cccc2ncncc12 (stereo in doubt) [Example 19, 3-((quinazolin-5-yl)ethynyl)-4-methyl-(S)—N-[4-((3-(dimethylamino)pyrrolidin-1-yl)methyl)-3-trifluoromethylphenyl]benzamide]		IC50 ([1]; typically 48 hours): 8100 nM
CNc1ncc2ccc(C#Cc3cc(C(=O)Nc4ccc(CN5CCN(CCO)CC5)c(C(F)(F)F)c4)ccc3C)cc2n1 [Example 15, 3-((2-methylaminoquinazolin-7-yl)ethynyl)-4-methyl-N-[4-((4-(2-hydroxyethyl)piperazin-1-yl)methyl)-3-trifluoromethylphenyl]benzamide]	2900 nM	

The next lines start with results.

IC50 [1, 5]	Structure (SMILES)	other results
2840 nM	Cc1ccc(C(=O)Nc2ccc(CN3CCN(C)CC3)c(C(F)(F)F)c2)cc1C#Cc1ccc2nccnc2c1 [Example 23]	IC50 (Human ABL1 (T315I)): 6 nM
1870 nM	Cc1ccc(C(=O)Nc2ccc(CN3CCN(C)CC3)c(C(F)(F)F)c2)cc1C#Cc1cccc2[nH]nc(N)c12 [Example 1, 3-(3-amino-1H-indazol-4-yl)ethynyl-4-methyl-N-[4-(4-methylpiperazin-1-yl)methyl-3-trifluoromethylphenyl]benzamide]	IC50 (Human ABL1 (T315I)): 6.48 nM
730 nM	CNc1ncc2ccc(C#Cc3cc(C(=O)Nc4ccc(CN5CCN(C)CC5)c(C(F)(F)F)c4)ccc3C)cc2n1 [Example 6, 3-((2-methylaminoquinazolin-7-yl)ethynyl)-4-methyl-N-[4-((4-methylpiperazin-1-yl)methyl)-3-trifluoromethylphenyl]benzamide]	IC50 [2]: 7890 nM; IC50 [3]: 8260 nM; IC50 [4]: 2100 nM
660 nM	Cc1ccc(NC(=O)Nc2ccc(CN3CCN(C)CC3)c(C(F)(F)F)c2)cc1C#Cc1cccc2[nH]nc(N)c12 [Example 32, N-[3-((3-amino-1H-indazol-4-yl)ethynyl)-4-methyl]phenyl-N′-[4-((4-methylpiperazin-1-yl)methyl)-3-trifluoromethylphenyl]urea]	IC50 [2]: 2110 nM; IC50 [3]: 6970 nM; IC50 [4]: 2130 nM
3720 nM	Cc1ccc(C(=O)Nc2ccc(CN3CCN(C)CC3)c(C(F)(F)F)c2)cc1C#Cc1ccc2ncncc2c1 [Example 2, 3-((quinazolin-6-yl)ethynyl)-4-methyl-N-[4-((4-methylpiperazin-1-yl)methyl)-3-trifluoromethylphenyl]benzamide]	
9050 nM	Cc1ccc(C(=O)Nc2ccc(CN3CCN(C)CC3)c(C(F)(F)F)c2)cc1C#Cc1cccc2nc(N)ncc12 [Example 27, 3-((2-aminoquinazolin-5-yl)ethynyl)-4-methyl-N-[(4-(4-methylpiperazin-1-yl)methyl)-3-trifluoromethylphenyl]benzamide]	
7030 nM	Cc1ccc(C(=O)Nc2ccc(CN3CCN(CCO)CC3)c(C(F)(F)F)c2)cc1C#Cc1cccc2ncncc12 [Example 16, 3-((quinazolin-5-yl)ethynyl)-4-methyl-N-[4-((4-(2-hydroxyethyl)piperazin-1-yl)methyl)-3-trifluoromethylphenyl]benzamide]	IC50 (Human ABL1 (T315I)): 12.4 nM
1090 nM	Cc1ccc(NC(=O)Nc2ccc(CN3CCN(C)CC3)c(C(F)(F)F)c2)cc1C#Cc1ccc2cncnc2c1 [Example 31]	
8100 nM	Cc1ccc(C(=O)Nc2ccc(CN3CCN(C)CC3)c(C(F)(F)F)c2)cc1C#Cc1ccc2c(c1)nc(N)n2C [Example 22, 3-((2-amino-1-methyl-1H-benzo[d]imidazol-5-yl)ethynyl)-4-methyl-N-[(4-(4-methylpiperazin-1-yl)methyl)-3-trifluoromethylphenyl]benzamide]	
280 nM	CNc1ncnc2cc(C#Cc3cc(C(=O)Nc4ccc(CN5CCN(C)CC5)c(C(F)(F)F)c4)ccc3C)ccc12 [Example 12, 3-((4-methylaminoquinazolin-7-yl)ethynyl)-4-methyl-N-[4-((4-methylpiperazin-1-yl)methyl)-3-trifluoromethylphenyl]benzamide]	IC50 (Human ABL1 (T315I)): 31.7 nM
1600 nM	CC(=O)Nc1ncc2ccc(C#Cc3cc(C(=O)Nc4ccc(CN5CCN(C)CC5)c(C(F)(F)F)c4)ccc3C)cc2n1 [Example 8, 3-((2-acetylaminoquinazolin-7-yl)ethynyl)-4-methyl-N-[4-((4-methylpiperazin-1-yl)methyl)-3-trifluoromethylphenyl]benzamide]	
15500 nM	CNc1ncc2c(C#Cc3cc(C(=O)Nc4ccc(CN5CCN(C)CC5)c(C(F)(F)F)c4)ccc3C)cccc2n1 [Example 28, 3-((2-methylaminoquinazolin-5-yl)ethynyl)-4-methyl-N-[(4-((4-methyl)piperazin-1-yl)methyl)-3-trifluoromethylphenyl]benzamide]	
